For assay [1], the target named is T1, Serine/threonine-protein kinase 4 (Homo sapiens) (UniProt Q13043).
T1 sequence (whole entry): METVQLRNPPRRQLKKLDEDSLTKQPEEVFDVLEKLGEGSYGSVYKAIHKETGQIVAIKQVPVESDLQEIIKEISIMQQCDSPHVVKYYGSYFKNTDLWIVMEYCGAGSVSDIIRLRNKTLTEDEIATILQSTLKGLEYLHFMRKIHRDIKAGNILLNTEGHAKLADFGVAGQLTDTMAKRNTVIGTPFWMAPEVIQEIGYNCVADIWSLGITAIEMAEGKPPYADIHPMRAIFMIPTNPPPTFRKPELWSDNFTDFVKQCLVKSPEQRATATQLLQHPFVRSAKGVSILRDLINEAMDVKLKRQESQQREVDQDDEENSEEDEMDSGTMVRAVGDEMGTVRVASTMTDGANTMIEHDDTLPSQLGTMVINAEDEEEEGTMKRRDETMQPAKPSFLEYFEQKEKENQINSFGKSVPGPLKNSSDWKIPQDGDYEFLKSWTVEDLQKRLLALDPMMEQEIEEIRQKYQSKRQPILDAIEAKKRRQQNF
Description: Selectivity interaction (Kinase panel (DSF assay)) EUB0001558a STK4. (In general: In DSF a fluorescence change marks the thermal transition of the protein.)

For assay [2], the target named is Phosphatidylinositol 4-phosphate 5-kinase type-1 alpha (Homo sapiens) (UniProt Q99755). Description: Selectivity interaction (KinomeScan (DiscoverX)) EUB0001049a PIP5K1A. The conditions noted are these: at 1 µM.
Assay [3] addresses Ribosomal protein S6 kinase beta-1 (Homo sapiens, UniProt P23443). Description: Selectivity interaction (KinomeScan (DiscoverX)) EUB0001049a RPS6KB1. The conditions noted are these: at 1 µM.
Assay [4] in a line: Selectivity interaction (KinomeScan (DiscoverX)) EUB0000655a CDPK1. Conditions: at 10 µM.
In assay [5] the target is T2, Serine/threonine-protein kinase ICK (Homo sapiens) (UniProt Q9UPZ9).
T2 sequence (whole entry): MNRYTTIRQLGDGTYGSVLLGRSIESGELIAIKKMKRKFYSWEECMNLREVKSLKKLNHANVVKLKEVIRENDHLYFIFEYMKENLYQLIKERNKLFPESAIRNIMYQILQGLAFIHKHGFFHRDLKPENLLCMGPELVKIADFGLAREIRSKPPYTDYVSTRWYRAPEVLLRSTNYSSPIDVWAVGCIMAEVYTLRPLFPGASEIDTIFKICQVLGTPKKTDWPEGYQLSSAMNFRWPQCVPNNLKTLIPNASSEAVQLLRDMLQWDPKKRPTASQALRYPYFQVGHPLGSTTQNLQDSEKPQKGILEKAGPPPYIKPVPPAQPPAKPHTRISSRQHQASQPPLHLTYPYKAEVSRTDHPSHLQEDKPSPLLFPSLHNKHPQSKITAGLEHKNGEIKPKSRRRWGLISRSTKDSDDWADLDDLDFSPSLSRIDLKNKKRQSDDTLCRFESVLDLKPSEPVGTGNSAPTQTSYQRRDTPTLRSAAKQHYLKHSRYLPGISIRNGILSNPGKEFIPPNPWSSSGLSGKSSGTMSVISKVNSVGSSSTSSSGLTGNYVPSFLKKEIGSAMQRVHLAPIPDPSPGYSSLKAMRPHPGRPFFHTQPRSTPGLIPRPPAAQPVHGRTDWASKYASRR
In words: Selectivity interaction (KinomeScan (DiscoverX)) EUB0000655a ICK. The conditions noted are these: at 10 µM.

In assay [6] the test system is T3, Receptor-type tyrosine-protein kinase FLT3 (Homo sapiens), P36888 [D835Y].
T3 sequence (whole entry): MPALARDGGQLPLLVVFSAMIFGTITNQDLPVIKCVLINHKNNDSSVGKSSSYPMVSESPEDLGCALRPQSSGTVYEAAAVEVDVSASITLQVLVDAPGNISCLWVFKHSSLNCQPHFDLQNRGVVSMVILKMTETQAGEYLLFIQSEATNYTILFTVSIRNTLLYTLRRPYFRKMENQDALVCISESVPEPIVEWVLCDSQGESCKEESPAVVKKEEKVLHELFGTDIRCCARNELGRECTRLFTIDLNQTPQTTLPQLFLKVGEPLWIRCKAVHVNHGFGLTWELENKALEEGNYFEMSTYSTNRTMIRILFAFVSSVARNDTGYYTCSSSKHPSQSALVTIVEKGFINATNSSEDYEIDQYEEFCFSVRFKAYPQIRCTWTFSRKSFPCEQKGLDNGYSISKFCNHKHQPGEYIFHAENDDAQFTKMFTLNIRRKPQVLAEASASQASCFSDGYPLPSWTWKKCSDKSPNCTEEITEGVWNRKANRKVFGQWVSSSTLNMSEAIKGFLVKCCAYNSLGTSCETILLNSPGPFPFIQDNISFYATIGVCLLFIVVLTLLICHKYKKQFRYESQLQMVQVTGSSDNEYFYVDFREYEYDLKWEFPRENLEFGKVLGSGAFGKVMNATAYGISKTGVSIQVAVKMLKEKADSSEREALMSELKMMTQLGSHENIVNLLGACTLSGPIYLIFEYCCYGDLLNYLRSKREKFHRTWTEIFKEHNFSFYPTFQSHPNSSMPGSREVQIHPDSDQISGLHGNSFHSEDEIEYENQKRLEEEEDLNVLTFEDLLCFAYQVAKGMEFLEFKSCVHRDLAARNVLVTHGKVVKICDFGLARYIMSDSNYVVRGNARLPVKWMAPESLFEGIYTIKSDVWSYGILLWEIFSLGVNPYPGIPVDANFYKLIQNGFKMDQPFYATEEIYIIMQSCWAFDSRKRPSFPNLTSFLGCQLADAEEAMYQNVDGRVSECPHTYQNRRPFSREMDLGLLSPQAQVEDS
In words: (§1) Selectivity interaction (SelectScreen profiling (Invitrogen)) EUB0000607a FLT3. Conditions: at 2 µM.

For assay [7], the target named is Receptor-type tyrosine-protein kinase FLT3 (Homo sapiens) (UniProt P36888). The assay is described as §1. Conditions: at 2 µM.
Assay [8] addresses Dual specificity mitogen-activated protein kinase kinase 2 (Homo sapiens) (UniProt P36507). Description: Selectivity interaction (KinomeScan (DiscoverX)) EUB0000595a MAP2K2. Conditions: at 10 µM.

Chain of Ribosomal protein S6 kinase beta-1 (P23443 whole entry, looked up): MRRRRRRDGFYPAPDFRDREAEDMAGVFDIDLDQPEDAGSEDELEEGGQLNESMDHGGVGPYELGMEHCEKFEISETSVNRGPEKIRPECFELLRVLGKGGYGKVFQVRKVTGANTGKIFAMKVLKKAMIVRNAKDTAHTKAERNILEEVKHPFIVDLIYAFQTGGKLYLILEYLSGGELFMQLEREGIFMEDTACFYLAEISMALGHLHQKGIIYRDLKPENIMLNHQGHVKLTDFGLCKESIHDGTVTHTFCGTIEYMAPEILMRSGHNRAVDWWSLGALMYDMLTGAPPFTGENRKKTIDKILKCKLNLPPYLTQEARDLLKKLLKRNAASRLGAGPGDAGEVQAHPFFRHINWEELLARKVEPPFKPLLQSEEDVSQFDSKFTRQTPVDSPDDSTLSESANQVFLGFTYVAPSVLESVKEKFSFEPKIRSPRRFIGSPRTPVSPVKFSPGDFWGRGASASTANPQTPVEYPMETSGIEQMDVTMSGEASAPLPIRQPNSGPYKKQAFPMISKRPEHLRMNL
Chain of Dual specificity mitogen-activated protein kinase kinase 2 (Homo sapiens) (P36507 whole entry): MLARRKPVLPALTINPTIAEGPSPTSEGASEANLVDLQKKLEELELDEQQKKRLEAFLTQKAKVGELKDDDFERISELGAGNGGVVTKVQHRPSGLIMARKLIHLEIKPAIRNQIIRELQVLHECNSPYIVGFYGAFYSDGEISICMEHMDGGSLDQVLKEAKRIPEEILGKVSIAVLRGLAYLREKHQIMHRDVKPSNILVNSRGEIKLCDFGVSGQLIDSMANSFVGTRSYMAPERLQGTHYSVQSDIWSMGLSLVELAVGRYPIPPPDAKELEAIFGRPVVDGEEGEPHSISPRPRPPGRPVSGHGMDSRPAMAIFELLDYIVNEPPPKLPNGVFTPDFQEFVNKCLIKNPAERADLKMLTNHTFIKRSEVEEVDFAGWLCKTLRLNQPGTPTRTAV
Chain of Phosphatidylinositol 4-phosphate 5-kinase type-1 alpha (Homo sapiens) (Q99755 whole entry): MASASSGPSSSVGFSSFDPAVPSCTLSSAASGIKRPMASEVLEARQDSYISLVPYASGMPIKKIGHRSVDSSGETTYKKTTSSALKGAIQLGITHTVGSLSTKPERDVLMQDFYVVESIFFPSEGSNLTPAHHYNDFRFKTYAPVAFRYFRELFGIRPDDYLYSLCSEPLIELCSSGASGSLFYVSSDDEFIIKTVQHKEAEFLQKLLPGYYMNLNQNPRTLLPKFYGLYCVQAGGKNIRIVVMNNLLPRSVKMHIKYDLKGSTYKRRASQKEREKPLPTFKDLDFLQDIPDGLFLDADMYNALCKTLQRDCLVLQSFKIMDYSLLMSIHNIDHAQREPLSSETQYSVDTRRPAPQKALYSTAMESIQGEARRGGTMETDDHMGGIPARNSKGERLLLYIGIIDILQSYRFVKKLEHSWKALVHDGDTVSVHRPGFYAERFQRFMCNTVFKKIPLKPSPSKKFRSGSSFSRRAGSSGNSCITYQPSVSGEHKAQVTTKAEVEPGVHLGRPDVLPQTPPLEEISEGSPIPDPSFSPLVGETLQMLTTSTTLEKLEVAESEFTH

The compound `CC(C)(O)[C@H](F)CN1Cc2cc(NC(=O)c3cnn4cccnc34)c(N3CCOCC3)cc2C1=O` came in with a dTM in assay [1] of 1.9 K.

With `COc1cc(Nc2nc(C)cc(-c3cnn4nc(OC)ccc34)n2)cc(C(F)(F)F)c1`, the figures for the % of control in assay [2] and in assay [3] were 81% and 87%, respectively.

Take `CN(C)CCOc1ccc(-c2nc(-c3ccncc3)c(-c3ccc4c(c3)CC/C4=N\O)[nH]2)cc1`: the % of control in assay [4] turned out to be 15%; in assay [5] it was 100%.

For the compound `CNC(=O)Nc1ccc(-c2nc(N3CC4CCC(C3)O4)c3cnn(C4CCC5(CC4)OCCO5)c3n2)cc1`, the figures for the % of inhibition in assay [6] and in assay [7] were 7% and 17%, respectively.

`COCC(=O)NC/C=C/c1ccc2ncnc(Nc3ccc(Oc4ccc(C)nc4)c(C)c3)c2c1` [CP-724714] returned a % of control in assay [8] of 11%.

These data come from ChEMBL document CHEMBL5465560, “Selectivity Literature for EUbOPEN Chemogenomic Library” (2024).
